From publication PMC3411647 (PLoS ONE, 2012)

What was measured:
rat brain H3R = biological target: T1, rat brain H3R (Rattus norvegicus, UniProt Q9QYN8); test: Competitive/saturation binding with [3H]N-α-methylhistamine, rat cerebral cortex membranes; details: 2 nM [3H]N-α-methylhistamine, rat cerebral cortex membranes
T1 construct: from tissue; host or cells: rat cerebral cortex membranes
Procedure: Figure 4 Competition binding experiments with [^3H]-N-α-methylhistamine. […] The presented data are the means ±SE of values from a single experiment performed in duplicate and are representative of three to six separate experiments.
The membranes (50 µg of protein) were incubated with [^3H] N-α-methylhistamine at various concentrations (from 0.03 nM to 50 nM) for saturation binding assays. For competitive binding assays, the membranes (50 µg of protein) were incubated with 10 nM [^3H] N-α-methylhistamine for recombinant hH3R or 2nM [^3H] N-α-methylhistamine for rat brain H3R in the presence of various compound concentrations in the buffer (50 mM Tris–HCl, pH 7.4). […] Following three washes, the membrane-bound radioactivity was measured on a Topcount (PerkinElmer) at 20°C. […] IC50 values were converted to Ki values using the Cheng-Prusoff equation. Each experiment was performed in duplicate and repeated three to six times. All data were analyzed by nonline arregression using GraphPad Prism version 4.0 software.

H3R [1] = biological target: T2, H3R (Homo sapiens, UniProt Q9Y5N1); test: CRE-driven luciferase reporter gene assay in HEK-293 cells stably expressing hH3R; assay type: cell-based
T2 construct: expressed in transfected cells
T2 sequence (Q9Y5N1 whole entry): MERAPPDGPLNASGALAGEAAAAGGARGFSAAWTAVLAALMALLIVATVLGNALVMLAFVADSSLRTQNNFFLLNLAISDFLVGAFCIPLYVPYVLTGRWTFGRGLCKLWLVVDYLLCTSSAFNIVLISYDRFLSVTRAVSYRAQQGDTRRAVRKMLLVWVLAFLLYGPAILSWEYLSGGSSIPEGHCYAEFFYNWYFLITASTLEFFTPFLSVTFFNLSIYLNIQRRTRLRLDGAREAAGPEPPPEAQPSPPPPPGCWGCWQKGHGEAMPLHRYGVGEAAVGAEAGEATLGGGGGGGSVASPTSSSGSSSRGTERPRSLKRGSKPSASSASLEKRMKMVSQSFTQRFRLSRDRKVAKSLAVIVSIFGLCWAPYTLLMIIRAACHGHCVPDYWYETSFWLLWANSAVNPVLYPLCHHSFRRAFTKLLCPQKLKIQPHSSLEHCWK
Procedure: A, Concentration inhibition curve of luciferase activity induced by ZEL-H16 with forskolin stimulation. […] C. […] The presented data points are the mean ±SE of triplicate values from a single experiment and are representative of three to six separate experiments (*p<0.05; **p<0.01).
(§1) Luciferase activity was detected using a firefly luciferase kit (Promega, Madison, WI). When required, cells were treated overnight with or without PTX (100 ng/ml) in serum-free DMEM before the experiment.

hH2R = biological target: T3, hH2R (Homo sapiens, UniProt P25021); test: CRE-driven luciferase activity in HEK-293 cells stably expressing hH2R; assay type: cell-based
T3 construct: expressed in transfected cells
T3 sequence (P25021 whole entry): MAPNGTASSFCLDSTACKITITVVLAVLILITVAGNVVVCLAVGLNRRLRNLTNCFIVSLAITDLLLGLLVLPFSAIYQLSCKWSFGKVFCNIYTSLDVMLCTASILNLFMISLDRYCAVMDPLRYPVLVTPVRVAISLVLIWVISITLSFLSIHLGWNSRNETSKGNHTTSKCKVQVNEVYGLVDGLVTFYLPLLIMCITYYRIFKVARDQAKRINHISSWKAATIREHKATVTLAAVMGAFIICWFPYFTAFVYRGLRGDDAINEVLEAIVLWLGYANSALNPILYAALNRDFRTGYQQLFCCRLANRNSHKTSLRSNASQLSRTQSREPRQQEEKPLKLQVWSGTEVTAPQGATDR
Text: (§2) Figure 3 The selectivity of ZEL-H16 for hH3R in intracellular Ca^2+ flux assay and CRE-luciferase transcription assay. A–C, Intracellular Ca^2+ flux or CRE-driven luciferase activity induced by ZEL-H16 in HEK-293 cells stably expressing hH1R (A), hH2R (B), or hH4R (C). […] The presented data points are the mean ±SE of triplicate values from a single experiment and are representative of three separate experiments. Statistical analysis between ZEL-H16 added or not added for each concentration point in the kinetic graph was done using a t-test (PRISM software). G, Relative expression of hH1R, hH2R, hH3R and hH4R on transfected HEK-293 cells by ELISA quantification for Flag-tagged cell-surface receptors (***p<0.001, compared to non-transfected HEK 293 cells).
as §1, with “Stable HEK-293 cells co-transfected with H3R and pCRE-Luc were seeded in a 48-well plate overnight and were grown to […] confluence. […] Luciferase” for “Luciferase”

hH4R = biological target: T4, hH4R (Homo sapiens, UniProt Q9H3N8); test: CRE-driven luciferase activity in HEK-293 cells stably expressing hH4R; assay type: cell-based
T4 construct: expressed in transfected cells
Text: as §2
as §1, with “Stable HEK-293 cells co-transfected with H3R and pCRE-Luc were seeded in a 48-well plate overnight and were grown to […] confluence. […] Luciferase” for “Luciferase”

mouse H3R = biological target: T5, mouse H3R (Mus musculus, UniProt P58406); test: ERK1/2 phosphorylation in neonatal mouse cortical neuron cultures; assay type: cell-based; details: 5 µM
T5 construct: endogenous in cells; host or cells: primary cortical neurons of neonatal ICR mice
T5 sequence (P58406 whole entry): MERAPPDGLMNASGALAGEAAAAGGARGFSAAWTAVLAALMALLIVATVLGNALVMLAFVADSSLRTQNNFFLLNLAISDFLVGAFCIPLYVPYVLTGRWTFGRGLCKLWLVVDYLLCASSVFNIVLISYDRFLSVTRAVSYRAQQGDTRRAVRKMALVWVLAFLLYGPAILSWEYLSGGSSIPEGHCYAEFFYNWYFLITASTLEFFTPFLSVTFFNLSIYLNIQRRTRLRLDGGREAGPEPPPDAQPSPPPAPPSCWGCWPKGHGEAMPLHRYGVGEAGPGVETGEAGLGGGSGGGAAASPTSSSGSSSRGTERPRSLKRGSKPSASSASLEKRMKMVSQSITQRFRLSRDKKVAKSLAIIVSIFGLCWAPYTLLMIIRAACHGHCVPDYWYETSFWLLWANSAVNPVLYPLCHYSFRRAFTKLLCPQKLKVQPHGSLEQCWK
Procedure: Figure 8 Phosphorylation of ERK1/2 induced by ZEL-H16 in mouse cortical neurons. A, Time-dependent phosphorylation of ERK1/2 induced by 5 µM ZEL-H16 in neonatal mouse cortical neuron cultures. B, The phosphorylation of ERK1/2 induced by 50 µM ZEL-H16 for 20 min was mostly abolished by 100 ng/mL PTX or 10 µM thioperamide. Signals were quantified by densitometric image analysis and p-ERK was normalized to a loading control (ERK). The signal at each point is expressed as the percentage of the maximal p-ERK signal induced by ZEL-H16. Data represent the mean ±SE of three independent experiments.
Neuronal cortical cultures were prepared from neonatal ICR mice. Cerebral cortices were dissociated in sterile Dulbecco’s phosphate-buffered saline (D-PBS; Sigma-Aldrich, St. Louis, MO), and the neurons were isolated in the same medium containing 0.5% trypsin at 37°C for 10 min. After centrifugation, dissociated neurons were re-suspended in neurobasal medium (NBM; Gibco, Carlsbad, CA) supplemented with 2% B-27 and 0.5 mmol/L-glutamine (Gibco, Carlsbad, CA) and then plated on 48-well plates at a density of approximately 1.3×10^6 per well. After 7 days of culture, the neurons were serum starved for approximately 3 h prior to drug treatment. […]

H3R [2] = biological target: T6, H3R (Cavia porcellus, UniProt Q9JI35); test: Guinea-pig ileum bioassay, inhibition of electrically induced twitch
T6 construct: from tissue; host or cells: guinea-pig ileum segments
T6 sequence (Q9JI35 whole entry): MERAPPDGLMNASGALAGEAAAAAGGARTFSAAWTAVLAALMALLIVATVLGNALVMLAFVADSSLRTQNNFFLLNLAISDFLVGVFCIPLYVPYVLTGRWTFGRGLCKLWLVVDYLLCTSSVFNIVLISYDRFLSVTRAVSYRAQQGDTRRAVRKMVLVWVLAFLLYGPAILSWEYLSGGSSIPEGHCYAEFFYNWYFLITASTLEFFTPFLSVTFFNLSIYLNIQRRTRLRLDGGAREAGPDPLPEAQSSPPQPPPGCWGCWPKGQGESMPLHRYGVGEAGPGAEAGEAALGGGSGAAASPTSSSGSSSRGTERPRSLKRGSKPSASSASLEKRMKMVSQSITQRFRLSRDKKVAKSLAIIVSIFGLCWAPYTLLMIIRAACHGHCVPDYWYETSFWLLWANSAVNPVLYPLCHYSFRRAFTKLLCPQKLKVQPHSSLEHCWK
Procedure: Each point is the mean ± s.e.m. of three to six separate experiments.
The procedure used was as described previously. Adult male guinea pigs (300–500 g) were killed by cervical dislocation. The ileum was removed at a point 20 cm from the caecum and flushed with and placed in modified K–H buffer of following composition: 118 mM NaCl, 5.9 mM KCl, 1.2 mM CaCl2, 1.2 mM MgSO4, 1 mM Na2HPO4, 25 mM NaHCO3 and 10 mM D-glucose. Ileum segments (2.5–3 cm) were suspended in 20 ml organ baths containing K–H buffer maintained at 37°C and gassed with 95% O2/5% CO2. Contractile activity under stimulation (rectangular pulses of 15 V, 0.5 ms, and 0.1 Hz) was recorded using isometric transducers (Grass FTO3). […] Mepyramine ([…]) and famotidine ([…]) (Sigma-Aldrich, St. Louis, MO) were added to the K–H buffer to block postsynaptic H1 and presynaptic H2 receptors, respectively.

T1 sequence (Q9QYN8 whole entry): as the sequence (P58406 whole entry) above, with A15T, T286A, G290A, H387R, V389I counted along it

Ki (rat brain H3R): 4.36 ± 2 nM
Emax (H3R [1]; HEK293): 61 ± 3.2%
Schild slope (H3R [1]; agonist curves in the presence of 30 nM, 300 nM or 1 µM thioperamide): 1.140±0.168
EC50 (H3R [1]; inhibition of forskolin-induced luciferase activity, Mean ± SEM, n = 6): 4.36 ± 1.39 nM
agonist activity: luciferase activity after stimulation (hH2R; ZEL-H16 alone): no significant responses
agonist activity: luciferase activity after stimulation (hH4R; ZEL-H16 alone): no significant responses
time of maximal ERK activation after stimulation (mouse H3R): 20 min
efficacy of inhibition of the contractions of the guinea pig ileum (H3R [2]; electrically induced twitch, mepyramine and famotidine present): 54.03±5.13%
EC50 (H3R [2]; inhibition of electrically induced twitch, read-out: pD 2 (converted)): 269 nM
Compound: c1ccc2c(c1)c(CCCN1CCCCC1)cn2CCCN1CCCCC1 [ZEL-H16]
antagonist activity: influence on luciferase activity curves induced by histamine (hH2R; ZEL-H16 added to histamine): did not significantly change the luciferase activity curves
antagonist activity: influence on luciferase activity curves induced by histamine (hH4R; ZEL-H16 added to histamine): did not significantly change the luciferase activity curves
